Counter-ions that a name gives are not always drawn.

Data set [1] is described as follows: Solubility of cenicriviroc mesylate. Format: physicochemical.
Data set [2] deals with adults with CCR5 tropic HIV-1. Description: Study 202 post-hoc APRI and FIB-4 fibrosis index scores. Format: in vivo, human. Here is the method: APRI and FIB-4 scores were calculated. Change in score category from baseline (BL) to Weeks 24 and 48 was assessed in patients with non-missing data. Correlations between changes from BL in APRI and FIB-4 scores, and MCP-1 (CCR2 ligand) and sCD14 (inflammatory biomarker) levels were evaluated.

The subject of data set [3] is HIV-1 infected adult subjects. In words: Study 202 biomarkers of inflammation. Format: in vivo, human. The note with it: EFV 600 mg. Here is the method: As an exploratory analysis, levels of inflammation biomarkers MCP-1, sCD14, high sensitivity C-reactive protein [hs-CRP], interleukin-6 [IL-6], D-dimer, and fibrinogen) were measured. Baseline values and changes from baseline at Week 24 and Week 48 of MCP-1, sCD14, hs-CRP, IL-6, D-dimer, and fibrinogen are summarized in Table 22.
The sCD14 samples were originally analyzed in 2 separate batches: Batch 1 included samples leading up to the Week 24 primary analysis and Batch 2 included Week 32 and Week 48 (end of study) samples. A repeat analysis of archived samples all analyzed in one batch was conducted for consistency in analysis across time points. To control for the effects of covariates, a linear mixed-model repeated-measures analysis was conducted on the changes from baseline in sCD14 (analysis dated September 2013).

[4] abbreviates: Week 24, CVC pooled 100 and 200 mg, or EFV.
Where [5] appears, read: Week 48, CVC pooled 100 and 200 mg, or EFV.

As to `CCCCOCCOc1ccc(-c2ccc3c(c2)C=C(C(=O)Nc2ccc([S@@+]([O-])Cc4cncn4CCC)cc2)CCCN3CC(C)C)cc1` [cenicriviroc mesylate, (S)-8-[4-(2-Butoxyethoxy)phenyl]-1-isobutyl-N-(4-{[(1-propyl-1H-imidazol-5-yl)methyl]sulfinyl}phenyl)-1,2,3,4-tetrahydro-1-benzazocine-5-carboxamide monomethanesulfonoate], the Solubility entry in data set [1] (aqueous solution at pH 3) is “sparingly soluble”; in data set [1] (aqueous solution from pH 1 to 2) it was “freely soluble”; in data set [1] (aqueous solution from pH 4 to 13 and in water), “practically insoluble”; in data set [1] (in 99.5% ethanol), “sparingly soluble”; in data set [1] (in acetonitrile, 1-octanol, tetrahydrofuran), “slightly soluble”; in data set [1] (in ethyl acetate and diethylether), “practically insoluble”. The Solubility entry is recorded as “freely soluble” in data set [1] (in glacial acetic acid, methanol, benzyl alcohol, dimethylsulfoxide, N,N-dimethylformamide); “soluble” in data set [1] (in pyridine and acetic anhydride).
On to `O=C1Nc2ccc(Cl)cc2[C@@](C#CC2CC2)(C(F)(F)F)O1` [EFV, efavirenz, reference compound], for which, in data set [2] (EFV arm, all subjects <1.45 at baseline), the “Subjects with decrease in FIB-4 score by one category” value is reported as “no subject treated with EFV decreased in FIB-4 score by one category”. In data set [2] (setting [4]), the “Subjects in APRI category <0.5” value is reported as 100%, the “Subjects in FIB-4 category <1.45” value is reported as 100% and the “Subjects with APRI decreased 1 category from baseline” value amounted to 5%. In data set [2] (setting [5]), the “Subjects in APRI category <0.5” value came out at 100%, the “Subjects in FIB-4 category 1.45-3.25” value was 6%, the “Subjects in FIB-4 category <1.45” value is 94% and the “Subjects with APRI decreased 1 category from baseline” value was found to be 6%. In data set [3] (Week 12), the “sCD14 (original values) change from baseline, mean” value was 90000 pg/mL and the “sCD14 (original values) change from baseline, median” value is 180000 pg/mL. In data set [3] (Week 24), the “D-dimer change from baseline, mean” value was -53 ng/mL; the “D-dimer change from baseline, median” value is -26 ng/mL; the “Fibrinogen change from baseline, mean” value was -28 mg/dL; the “Fibrinogen change from baseline, median” value was -31 mg/dL. In data set [3] (Week 24), the “IL-6 change from baseline, mean” value is -8.72 pg/mL; the “IL-6 change from baseline, median” value is recorded as 0.00 pg/mL; the “MCP-1 change from baseline, mean” value was -44 pg/mL; the “MCP-1 change from baseline, median” value is -17 pg/mL. Besides, in data set [3] (Week 24), the “hs-CRP change from baseline, mean” value was -0.46 mg/dL; the “hs-CRP change from baseline, median” value is -0.01 mg/dL; the “sCD14 (original values) change from baseline, mean” value stood at 230000 pg/mL; the “sCD14 (original values) change from baseline, median” value is 130000 pg/mL. Further, in data set [3] (Week 32), the “sCD14 (original values) change from baseline, mean” value is 480000 pg/mL and the “sCD14 (original values) change from baseline, median” value was 170000 pg/mL. In data set [3] (Week 48), the “D-dimer change from baseline, mean” value is -34 ng/mL; the “D-dimer change from baseline, median” value is recorded as 0.0 ng/mL; the “Fibrinogen change from baseline, mean” value was -30 mg/dL; the “Fibrinogen change from baseline, median” value is -22 mg/dL. Also, in data set [3] (Week 48), the “IL-6 change from baseline, mean” value was -13.11 pg/mL; the “IL-6 change from baseline, median” value is given as 0.00 pg/mL; the “MCP-1 change from baseline, mean” value amounted to 4.2 pg/mL; the “MCP-1 change from baseline, median” value came out at 33.6 pg/mL. In addition, in data set [3] (Week 48), the “hs-CRP change from baseline, mean” value was -0.71 mg/dL; the “hs-CRP change from baseline, median” value was -0.03 mg/dL; the “sCD14 (original values) change from baseline, median” value amounted to 460000 pg/mL.

The values above are taken from patent publication US20200268768A1, “CENICRIVIROC COMBINATION THERAPY FOR THE TREATMENT OF FIBROSIS” (Tobira Therapeutics, Inc., priority 2015, published 2020).
